US20040122048A1, “Stabilized pharmaceutical composition containing basic excipients” (Wyeth Holdings Corporation, priority 2002, published 2004)

Assays:
[1] = Solid state stability for EKB-569 drug substance at 56° C./75% RH; type: physicochemical; details: for % EKB-569 remaining / Total impurities: drug substance, 56° C./75% RH
Experimental: A study was conducted at 56° C./75% RH for 2 weeks. The samples were filled into 2-ml flame sealed Kimble score-break ampules.

[2] = Stability of EKB-569 solution (degradation rate constant in buffers); type: physicochemical; details: for EKB-569 degradation rate constant: 0.2 mg/mL in 0.02 M buffer with 50% Acetonitrile
[3] = pH of excipient solutions and of crushed EKB-569 tablet slurries; type: physicochemical; details: for pH at 0.1% excipient, Excipient Solution: 0.1% solution/suspension of basic excipient; for pH at 0.5% excipient, Excipient Solution: 0.5% solution/suspension of basic excipient; for pH at 1% excipient, Excipient Solution: 1% solution/suspension of basic excipient; for pH at 5% excipient, Excipient Solution: 5% solution/suspension of basic excipient
Description: The data in Table 3 supported testing improved stability of a pharmaceutical composition by lowering the pH of the pharmaceutical composition. […]

[4] = Experimental: Compositions of tablets containing 0.5% and 0.1% of these excipients remain the same. Quantity of microcrystalline cellulose was adjusted to allow for the changes in the amounts of basic excipients. Tablets were manufactured using granulation.
Tablets were stored at 40° C./75% RH for 1 month.

SMILES	pH at 0.1% excipient, Excipient Solution [3]	pH at 0.5% excipient, Excipient Solution [3]	pH at 1% excipient, Excipient Solution [3]	pH at 5% excipient, Excipient Solution [3]	other results
CCOc1cc2ncc(C#N)c(Nc3ccc(F)c(Cl)c3)c2cc1NC(=O)C=CCN(C)C [EKB-569, 4-dimethylamino-but-2-enoic acid [4-(3-chloro-4-fluoro-phenylamino)-3-cyano-7-ethoxy-quinolin-6-yl]-amide]	–	–	–	–	stability in the solid state ([1]; 56° C./75% RH for 2 weeks): chemical instability in the solid state; % EKB-569 remaining ([1]; 3 Days): 98.1%; Total impurities ([1]; 3 Days): 1.1%; % EKB-569 remaining ([1]; 7 Days): 97.7%; Total impurities ([1]; 7 Days): 1.68%; % EKB-569 remaining ([1]; 14 Days): 97.1%; Total impurities ([1]; 14 Days): 2.62%; % EKB-569 remaining ([1]; Initial): 99.1%; Total impurities ([1]; Initial): 0.78%; EKB-569 degradation rate constant ([2]; pH 1.2 (HCl), 80° C.): 0.0013 h⁻¹; EKB-569 degradation rate constant ([2]; pH 3.0 (Phoshphate), 80° C.): 0.0003 h⁻¹; EKB-569 degradation rate constant ([2]; pH 5.0 (Acetate), 56° C.): 0.0008 h⁻¹; EKB-569 degradation rate constant ([2]; pH 5.0 (Acetate), 80° C.): 0.0113 h⁻¹; EKB-569 degradation rate constant ([2]; pH 7.4 (Phosphate), 56° C.): 0.003 h⁻¹; EKB-569 degradation rate constant ([2]; pH 7.4 (Phosphate), 80° C.): 0.0235 h⁻¹; EKB-569 degradation rate constant ([2]; pH 9 (Glycine), 56° C.): 0.0031 h⁻¹; EKB-569 degradation rate constant ([2]; pH 9 (Glycine), 80° C.): 0.0229 h⁻¹; stability in solution as a function of pH ([2]; pH range 1.2-9, 56° C. and 80° C.): more stable in acidic solution
O=C([O-])CN(CCN(CC(=O)[O-])CC(=O)[O-])CC(=O)[O-].[Na+].[Na+].[Na+].[Na+] [EDTA, tetra sodium]	10.55	10.84	10.94	10.75	–
N=C(N)NCCC[C@H](N)C(=O)O [Arginine]	10.18	10.57	10.91	11.23	–
NC(CO)(CO)CO [Tromethamine]	9.98	9.99	10.51	10.87	–
O=C([O-])[O-].[Na+].[Na+] [Sodium carbonate]	10.99	11.21	11.31	11.5	–
O=C([O-])O.[Na+] [Sodium bicarbonate]	8.69	8.56	8.34	8.18	–
O=C([O-])[O-].[Ca+2] [Calcium carbonate]	8.95	8.93	9.02	9.12	–
OC[C@H]1O[C@@H](O[C@H]2[C@H](O)[C@@H](O)C(O)O[C@@H]2CO)[C@H](O)[C@@H](O)[C@H]1O (stereo partly shown) [lactose]	–	–	–	–	effect on stability of EKB-569 pharmaceutical composition [4]: no effect on stability
